Values joined by “and” are separate entries in the source; they are usually repeats but may differ in a detail not shown here. Equal values may be shown once. Read-outs that look alike come from different tables or passages of the source.
Columns and labels:
white Wistar rats [1] = experiment: transport stress simulation test (shaker, 240 min); assay type: in vivo, rat; parameters: AST in blood serum / ALT in blood serum / Creatinine in blood serum: unit not given here
Method: The anti-stress, anxiolytic and antidepressant effects of the claimed agent and compositions on its basis were determined as follows. […] The suspension test. Five animals from each group were used. Each animal was suspended for 24 hours. After that the sample of whole blood was taken from the sublingual vessels of that animal Then the animal was placed in a desiccator with diethyl ether. 60 minutes later a spinal decapitation of the animal was performed. The abdominal opening was performed and the number of ulcers on the inner surface of the stomach was counted. The obtained whole blood was placed in two test tubes. The whole blood was used to determine the number of eosinophils by the Duncker method. Serum was used to determine the biochemical composition of the blood. Adrenaline and norepinephrine were determined as biochemical indices. These characteristics are specific markers identifying the impact of stress factors of various etiologies. • 2. The transport stress simulation test. Five animals from each group were used. The animals were placed in cages fixed on a laboratory shutter. The duration of the test was 240 minutes. At the end of the test the animals were examined by the techniques described in paragraph 1. A sample of whole blood was taken to determine the number of eosinophils by the Duncker method. The blood serum was studied to measure the amount of enzymes: alanine aminotransferase (ALT), aspartate aminotransferase (AST), creatinine
The tests were carried out on 2-month-old rats of the Wistar line. The groups were selected according to the principle of paired counterparts.
During the course of the study the animals were selected from the formed groups of 10 animals each to participate in stress tests, 5 animals per test. The selection was made on the 7th, 14th, 21st day of the drug administration (experiments were performed on the same days right after selection). The animals were weighed weekly immediately before testing. The obtained data were processed by statistical methods of mathematical statistics. […] Water for injection produced by the “Bufus Novosibkhimpharm” was used as a solvent. The introduced volume was 1.5 ml. The solution was introduced at the same tine 2 hours after morning feeding. The first group was given water for injection by the same way. The volume of administration was 1.5 ml.
The rotating universal Shaker Unimax 10 was used as a model for simulating transport stress. The rotation speed was chosen at 120 rpm for 240 min A cage with five animals was fixed on the site. The rats stayed in the cage in a free state. A change in the reaction of animals with prolonged administration of the drug was observed. The sampling and decapitation process is described in Example 1.
Physiological, morphological and biochemical blood parametres were determined as markers of the impact of stress on animals, such as: individual and group behavior of animals, the number of enuresis acts, the number of defecation acts, and the number of excrement boluses; eosinophils in whole blood according to Duncker and the levels of ALT, AST enzymes and creatinine in the blood serum were measured.
Transport stress is a striking example of technological effect on animal and human body. […] Thus, it suits best as an indicator for the observation of the classical example of the development of the adaptive syndrome by Selye. In the experiment, a simulation of the transport impact on the rats was performed with the help of the laboratory shutter. Progressive 4 hour-long circular vibrations adversely affected the animals. The rats in the control group were constantly moving, colliding with each other trying to concentrate in the corners, where the amplitude of the oscillation was the highest. At the same time the number of defecation acts was higher. The animals behaved aggressively. The stronger ones tried to push out a weaker animal out of the corner.

white Wistar rats [2] = experiment: suspension test (24 h), antistress and anxiolytic activity; assay type: in vivo, rat; conditions: 60 mg/kg in the form of pills with cocoa, administration day 7
male Wistar rats = conditions: for Dead / Survived: 6 rats
[3] = 30 mg/kg solution by gastric tube, administration day 7
[4] = 30 mg/kg solution by gastric tube, administration day 14
[5] = 30 mg/kg solution by gastric tube, administration day 21
[6] = 60 mg/kg in the form of pills with cocoa, administration day 7
[7] = 60 mg/kg in the form of pills with cocoa, administration day 14
[8] = 60 mg/kg in the form of pills with cocoa, administration day 21
[9] = 60 mg/kg solution by gastric tube, administration day 7
[10] = 60 mg/kg solution by gastric tube, administration day 14
[11] = 60 mg/kg solution by gastric tube, administration day 21
[12] = 120 mg/kg solution by gastric tube, administration day 7
[13] = 120 mg/kg solution by gastric tube, administration day 14
[14] = 120 mg/kg solution by gastric tube, administration day 21
[15] = single oral dose 6000 mg/kg, 6000 mg/kg
[16] = single oral dose 7000 mg/kg, 7000 mg/kg

O=C1O[C@H]([C@@H](O)CO)C([O-])=C1O.[Li+] [lithium ascorbate]
ALT in blood serum (white Wistar rats [1]; [3]): 29.8 ± 8.45 | AST in blood serum (white Wistar rats [1]; [3]): 91.7 ± 7.29 | Creatinine in blood serum (white Wistar rats [1]; [3]): 36.5 ± 3.84 | Eosinophil count in whole blood (white Wistar rats [1]; [3]): 794 ± 6.9 | Number of boluses in defecation (white Wistar rats [1]; [3]): 4.2 ± 0.4 | ALT in blood serum (white Wistar rats [1]; [4]): 32.1 ± 9.10 | AST in blood serum (white Wistar rats [1]; [4]): 109.9 ± 9.67 | Creatinine in blood serum (white Wistar rats [1]; [4]): 48.1 ± 3.82 | Eosinophil count in whole blood (white Wistar rats [1]; [4]): 921 ± 9.1 | Number of boluses in defecation (white Wistar rats [1]; [4]): 3.9 ± 0.4 | ALT in blood serum (white Wistar rats [1]; [5]): 31.7 ± 3.14 | AST in blood serum (white Wistar rats [1]; [5]): 121.2 ± 7.21 | Creatinine in blood serum (white Wistar rats [1]; [5]): 46.3 ± 3.26 | Eosinophil count in whole blood (white Wistar rats [1]; [5]): 928 ± 10.7 | Number of boluses in defecation (white Wistar rats [1]; [5]): 3.5 ± 0.3 | ALT in blood serum (white Wistar rats [1]; [6]): 22.7 ± 8.19 | AST in blood serum (white Wistar rats [1]; [6]): 68.8 ± 4.72 | Creatinine in blood serum (white Wistar rats [1]; [6]): 25.7 ± 4.30 | Eosinophil count in whole blood (white Wistar rats [1]; [6]): 528 ± 5.8 | Number of boluses in defecation (white Wistar rats [1]; [6]): 7.2 ± 1.5 | ALT in blood serum (white Wistar rats [1]; [7]): 34.8 ± 6.83 | AST in blood serum (white Wistar rats [1]; [7]): 119.7 ± 6.21 | Creatinine in blood serum (white Wistar rats [1]; [7]): 56.7 ± 6.44 | Eosinophil count in whole blood (white Wistar rats [1]; [7]): 938 ± 11.7 | Number of boluses in defecation (white Wistar rats [1]; [7]): 5.2 ± 0.9 | ALT in blood serum (white Wistar rats [1]; [8]): 35.0 ± 4.29 | AST in blood serum (white Wistar rats [1]; [8]): 121. ± 4.29 | Creatinine in blood serum (white Wistar rats [1]; [8]): 58.4 ± 9.30 | Eosinophil count in whole blood (white Wistar rats [1]; [8]): 947 ± 12.4 | Number of boluses in defecation (white Wistar rats [1]; [8]): 3.7 ± 0.3 | ALT in blood serum (white Wistar rats [1]; [9]): 31.0 ± 3.15 | AST in blood serum (white Wistar rats [1]; [9]): 97.9 ± 5.04 | Creatinine in blood serum (white Wistar rats [1]; [9]): 39.6 ± 7.98 | Eosinophil count in whole blood (white Wistar rats [1]; [9]): 822 ± 8.7 | Number of boluses in defecation (white Wistar rats [1]; [9]): 4.6 ± 0.4 | ALT in blood serum (white Wistar rats [1]; [10]): 33.1 ± 2.84 | AST in blood serum (white Wistar rats [1]; [10]): 112.4 ± 6.23 | Creatinine in blood serum (white Wistar rats [1]; [10]): 48.3 ± 8.27 | Eosinophil count in whole blood (white Wistar rats [1]; [10]): 919 ± 4.1 | Number of boluses in defecation (white Wistar rats [1]; [10]): 3.9 ± 0.4 | ALT in blood serum (white Wistar rats [1]; [11]): 32.4 ± 6.37 | AST in blood serum (white Wistar rats [1]; [11]): 115.5 ± 8.97 | Creatinine in blood serum (white Wistar rats [1]; [11]): 45.6 ± 2.73 | Eosinophil count in whole blood (white Wistar rats [1]; [11]): 922 ± 9.3 | Number of boluses in defecation (white Wistar rats [1]; [11]): 3.7 ± 0.7 | ALT in blood serum (white Wistar rats [1]; [12]): 32.4 ± 7.75 | AST in blood serum (white Wistar rats [1]; [12]): 107.1 ± 6.20 | Creatinine in blood serum (white Wistar rats [1]; [12]): 39.8 ± 6.13 | Eosinophil count in whole blood (white Wistar rats [1]; [12]): 856 ± 4.2 | Number of boluses in defecation (white Wistar rats [1]; [12]): 5.0 ± 1.1 | ALT in blood serum (white Wistar rats [1]; [13]): 31.7 ± 7.32 | AST in blood serum (white Wistar rats [1]; [13]): 110.3 ± 7.41 | Creatinine in blood serum (white Wistar rats [1]; [13]): 47.8 ± 1.46 | Eosinophil count in whole blood (white Wistar rats [1]; [13]): 901 ± 16.8 | Number of boluses in defecation (white Wistar rats [1]; [13]): 4.1 ± 1.1 | ALT in blood serum (white Wistar rats [1]; [14]): 30.1 ± 7.42 | AST in blood serum (white Wistar rats [1]; [14]): 118.7 ± 4.48 | Creatinine in blood serum (white Wistar rats [1]; [14]): 42.1 ± 2.97 | Eosinophil count in whole blood (white Wistar rats [1]; [14]): 907 ± 4.3 | Number of boluses in defecation (white Wistar rats [1]; [14]): 4.0 ± 1.0 | Adrenaline level in blood serum (white Wistar rats [2]): 22.6 ± 4.27 µg/L | LD100 (male Wistar rats; oral, white rats of the Wistar line): 8000 mg/kg | Dead, % (male Wistar rats; single oral dose 1000 mg/kg): 0% | Dead (male Wistar rats; single oral dose 1000 mg/kg): 0 | Survived (male Wistar rats; single oral dose 1000 mg/kg): 6 | Dead, % (male Wistar rats; single oral dose 2000 mg/kg): 0% | Dead (male Wistar rats; single oral dose 2000 mg/kg): 0 | Survived (male Wistar rats; single oral dose 2000 mg/kg): 6 | Dead, % (male Wistar rats; single oral dose 3000 mg/kg): 0% | Dead (male Wistar rats; single oral dose 3000 mg/kg): 0 | Survived (male Wistar rats; single oral dose 3000 mg/kg): 6 | Dead, % (male Wistar rats; single oral dose 4000 mg/kg): 0% | Dead (male Wistar rats; single oral dose 4000 mg/kg): 0 | Survived (male Wistar rats; single oral dose 4000 mg/kg): 6 | Dead, % (male Wistar rats; single oral dose 5000 mg/kg): 16.6% | Dead (male Wistar rats; single oral dose 5000 mg/kg): 1 | Survived (male Wistar rats; single oral dose 5000 mg/kg): 5 | Dead, % (male Wistar rats; single oral dose 6000 mg/kg): 50% | Dead (male Wistar rats; [15]): 3 and 3/3 | Survived (male Wistar rats; [15]): 3 and 3/3 | Dead, % (male Wistar rats; single oral dose 7000 mg/kg): 50% | Dead (male Wistar rats; [16]): 3 and 3/3 | Survived (male Wistar rats; [16]): 3 and 3/3 | Survived (male Wistar rats; single oral dose 8000 mg/kg): 0

Reference: patent publication US10849878B2 (OBSHCHESTVO S OGRANICHENNOY OTVETSTVENNOSTYU “NORMOFARM”, priority 2015, dated 2020)
